US20150183738A1, “3-N-BUTYL-1-ISOINDOLINONE AND USE THEREOF FOR PREVENTING OR TREATING CEREBRAL INFARCTION” (SUN YAT-SEN UNIVERSITY, priority 2012, published 2015)
Entries after “also recorded” stand apart in the source; their conditions may differ.

Experiments:
[1] = system: middle cerebral artery occlusion (MCAO) model in rats; assay: Influence on cerebral infarct area/volume in MCAO models of rats (TTC staining, image J); assay type: in vivo, Male SD rats; conditions: for average infarct area: 30 mg/kg intraperitoneal injection 15 min after ischemia, 2 hrs of cerebral infarction and 24 hrs of reperfusion, TTC staining
Protocol: The middle cerebral artery occlusion (MCAO) model in rats is constructed to observe the anti-cerebral ischemia of 3-n-butyl-1-isoindolinone. The MCAO model is divided into three groups: 1) a negative control group, i. e., an vegetable oil, 3 mL/kg; 2) 3-n-butyl-1-isoindolinone group, 30 mg/kg; 3) a positive control group, i. e., 3-n-butylphthalide, 30 mg/kg. All the three groups are administered via intraperitoneal injection. Male SD rats having a weight of 250 g are selected and administered 15 min after the ischemia. After 2 hrs of cerebral infarction and 24 hrs of reperfusion, brain slices are prepared and conducted with TTC staining. Software image J is used to process staining results, calculate infarct areas, and compared with the results among different groups. It is known from the results that an average infarct area of the blank group is 24.430%, the average infarct area of the 3-n-butyl-1-isoindolinone group is 14.365%, and the average infarct area of the butylphthalide group is 14.402%. […] Male SD rats having a weight of between 250 and 270 g are selected. The Male SD rats are cultivated at a room temperature of 25° C. and are forbidden from feeding food except for water 12 hrs before the operation. The MCAO models are constructed in accordance with longa method or the like. 10% chloral hydrate is used to anesthetize the rats by intraperitoneal injection with a dose of 350 mg/kg. The rat is then upwardly fixed on a rat plate in a supine position and illuminated by an incandescent lamp for maintaining a body temperature thereof at 37±0.5° C. Rat hairs at the middle position of the neck are sheared, and the skin at such position is incised after disinfection. The common carotid artery (CCA), external carotid artery (ECA), and internal carotid artery (ICA) of the right side are carefully separated. The ECA is cut, and a cut end is straightened and aligned with the ICA, and a thread is then inserted therefrom. The thread is inserted for a depth of approximately 19.0±0.5 mm. After 2 hrs, a part of the thread is pulled out to realize reperfusion. The rat after suture ligation is then put back to the rat cage. After 24 hrs of reperfusion, brain slices are prepared for staining. The rats are divided into three groups with 10 in each group: 1) a blank control group, i. e., an vegetable oil, 3 mL/kg; 2) 3-n-butyl-1-isoindolinone group, 30 mg/kg; 3) a positive control group, i. e., 3-n-butylphthalide, 30 mg/kg. All the three groups are administered with drugs via intraperitoneal injection 15 min after modeling. After 24 hrs of reperfusion, brains are collected from killed rats and placed in Petri dishes. The brain tissues are quickly collected and placed in a refrigerator at a temperature of −20° C. for 20 min and taken out. The olfactory bulb, the cerebellum, and the lower brainstem are removed, and the remaining brain is then cut for five times with an interval of 2 mm, whereby six consecutive coronal brain slices are formed. 2% TTC dye solution is added to the Petri dishes to submerge the brain slice by the solution. The Petri dishes are placed at the temperature of 37° C. and incubated in the absence of light for between 25 and 30 min during which the brain slices are turned over once every 5 min. After TTC staining of the brain slices, a normal tissue thereof presents red and an ischemic region presents white. When the TTC staining is finished, the TTC dye solution is removed out of the Petri dishes by syringes. Formalin solution with an amount enabling to submerge the brain slices is then added, and the Petri dishes are placed in the dark. After 24 hrs, solidified brain slices are taken out and arranged in order in a blue background to take pictures. […]

[2] = system: middle cerebral artery occlusion (MCAO) model in rats; assay: Neurobehavioral assessment (Zea Longa) in MCAO models of rats; assay type: in vivo, Male SD rats; conditions: score after 24 hrs of reperfusion; for alleviation of the neurobehavior compared with the blank control group (ANOVA): 30 mg/kg i.p.
Protocol: Male SD rats having a weight of between 250 and 270 g are selected. The Male SD rats are cultivated at a room temperature of 25° C. and are forbidden from feeding food except for water 12 hrs before the operation. The MCAO models are constructed in accordance with longa method or the like. 10% chloral hydrate is used to anesthetize the rats by intraperitoneal injection with a dose of 350 mg/kg. The rat is then upwardly fixed on a rat plate in a supine position and illuminated by an incandescent lamp for maintaining a body temperature thereof at 37±0.5° C. Rat hairs at the middle position of the neck are sheared, and the skin at such position is incised after disinfection. The common carotid artery (CCA), external carotid artery (ECA), and internal carotid artery (ICA) of the right side are carefully separated. The ECA is cut, and a cut end is straightened and aligned with the ICA, and a thread is then inserted therefrom. The thread is inserted for a depth of approximately 19.0±0.5 mm. After 2 hrs, a part of the thread is pulled out to realize reperfusion. The rat after suture ligation is then put back to the rat cage. After 24 hrs of reperfusion, brain slices are prepared for staining.
The rats are divided into three groups with 10 in each group: 1) a blank control group, i. e., an vegetable oil, 3 mL/kg; 2) 3-n-butyl-1-isoindolinone group, 30 mg/kg; 3) a positive control group, i. e., 3-n-butylphthalide, 30 mg/kg. All the three groups are administered with drugs via intraperitoneal injection 15 min after modeling.
According to Zea Longa assessment, ethology observation is conducted after 2 hrs of modeling and 24 hrs of reperfusion and before killing the rats. The tail of the rat is seized to lift the rat about 1 foot off the ground to observe the condition of the left forelimb. […]
After 24 hrs of reperfusion of the MCAO models of the rats, the neurobehavioral assessment is conducted on the rats again, and the results are recorded.

[3] = background statement; oily liquid; cited from earlier work
[4] = 30 mg/kg i.p., 2 hrs MCAO, 24 hrs reperfusion

Structure (SMILES) | infarct volume reduced compared with the solvent control group [1, 4] | reduced infarct area compared with the blank control group (one-factor ANOVA) [1, 4] | average infarct area [1] | reduced infarct area, difference compared with butylphthalide (one-factor ANOVA) ([1]; both 30 mg/kg i.p., 2 hrs MCAO, 24 hrs reperfusion) | alleviation of the neurobehavior compared with the blank control group (ANOVA) [2] | alleviation of the neurobehavior compared with the butylphthalide group (ANOVA) ([2]; both 30 mg/kg i.p.) | water solubility [3]
CCCCC1NC(=O)c2ccccc21 (stereo not shown) [3-n-butyl-1-isoindolinone] | 41.199% | significant difference (P<0.001) | 14.365% | no significant statistical difference; also recorded: no statistical significance (P=0.989) | significant difference (P=0.003<0.01) | no significant difference (P=0.384>0.05) | –
CCCCC1OC(=O)c2ccccc21 (stereo not shown) [butylphthalide, 3-n-butylphthalide, reference compound] | – | significant difference (P<0.01) | 14.402% | – | significant difference | – | water insoluble
